Where “and” joins values, the source holds several entries; their conditions need not be identical. Equal entries are not always repeated.
Legend:
[1] = test system: breakthrough migraine in patient treated with fremanezumab; conditions: human, in vivo
[2] = test system: migraine attack of moderate or severe intensity in adults; format: in vivo, human
patients with migraine = conditions: in vivo
[3] = test system: breakthrough migraine in patients treated with erenumab-aooe; conditions: human, in vivo
[4] = test system: breakthrough migraine in patients treated with botulinum toxin (Botox); conditions: human, in vivo

`N[C@@H]1c2cccnc2[C@H](OC(=O)N2CCC(n3c(=O)[nH]c4ncccc43)CC2)CC[C@H]1c1cccc(F)c1F` [Rimegepant, [(5S,6S,9R)-5-amino-6-(2,3-difluorophenyl)-6,7,8,9-tetrahydro-5H-cyclohepta[b]pyridin-9-yl] 4-(2-oxo-3H-imidazo[4,5-b]pyridin-1-yl)piperidine-1-carboxylate] was tested, and the “migraine breakthroughs successfully treated” value [1] was “three migraine breakthroughs that were successfully treated”, the “N. Censored (no pain score of none by 495 minutes postdose, censored at 496 minutes)” value ([2]; N = 537) was 139 and the “Freedom from most bothersome symptom at two hours postdose, Common Risk” value ([2]; in vivo) was 41.2%. For the same molecule, the “Freedom from most bothersome symptom at two hours postdose, Free from MBS n/N” value ([2]; in vivo) was 31/89 and 171/448 and 202/537, the “Freedom from most bothersome symptom at two hours postdose, Stratum Risk” value ([2]; in vivo) was 40.3% and 41.4% and the “Pain freedom at two hours postdose, Common Risk” value ([2]; in vivo) was 20.2%. For the same molecule, the “Pain freedom at two hours postdose, No Pain n/N” value ([2]; in vivo) was 14/89 and 91/448 and 105/537, the “Pain freedom at two hours postdose, Risk Difference Rimegepant vs Placebo” value ([2]; in vivo) was 7.82 and 7.36 and 7.91 and the “Pain freedom at two hours postdose, Stratum Risk” value ([2]; in vivo) was 16.7% and 20.9%. For the same molecule, the “incidence of serum ALT or AST >3×ULN” value (patients with migraine; human) was 1.0%, the “Hy's Law cases” value (patients with migraine) was “no Hy's Law cases identified” and the “liver cases assessed as probably related to study drug” value (patients with migraine) was “no liver cases assessed as probably related to study drug”. The liver safety signal (patients with migraine) was “no liver safety signal detected to date”, the “mean reduction in headaches/month” value (patients with migraine) was 4 days and the “patients with at least 30% reduction in monthly number of headache days” value (patients with migraine) was “Approximately 40%”. For the same molecule, the “Preference of Medication response” value [3] was “Much better, I prefer this medication”, the “Satisfaction with Medication (SM) response” value [3] was “Very satisfied” and the “acute treatment of breakthrough migraine, outcome” value [3] was “effective”. For the same molecule, the adverse events [3] was “no adverse events”, the “adverse events related to treatment” value [3] was “no adverse events related to treatment” and the “adverse events while receiving rimegepant alone (streptococcal pharyngitis, considered unrelated)” value [3] was 1. The “rating versus previous treatments” value [3] was “much better”, the “relief from breakthrough migraine headache” value [3] was “obtained relief from the migraine headache without the need to take other medications” and the “satisfaction with rimegepant at end-of-study visit” value [3] was “very satisfied”. For the same molecule, the “adverse effects from treatment” value [4] was “did not report any adverse effects”, the “need for rescue medication” value [4] was “did not require any rescue medications or additional doses of rimegepant” and the “number of headache days (parent report)” value [4] was “noticeable reduction in the number of headache days”. The “relief from breakthrough migraine headache” value [4] was “obtained relief from the migraine headache without the need to take other medications”, the “resolution of Botox induced headache” value [4] was “completely resolved within an hour” and the “time to full resolution of headache” value [4] was ≤ 1 h. The “time to pain relief” value [4] was “within a half an hour”.

For `CN(C)CCc1c[nH]c2ccc(C[C@H]3COC(=O)N3)cc12` [Zomig®, reference compound], the “effect on migraines (patient history)” value [4] was “would decrease in intensity but they would not attain freedom from pain within 24 hrs”.

B1: erenumab (antibody, chains of the INN, looked up, V domains shown)
VH: QVQLVESGGGVVQPGRSLRLSCAASGFTFSSFGMHWVRQAPGKGLEWVAVISFDGSIKYSVDSVKGRFTISRDNSKNTLFLQMNSLRAEDTAVYYCARDRLNYYDSSGYYHYKYYGMAVWGQGTTVTVSS
VL: QSVLTQPPSVSAAPGQKVTISCSGSSSNIGNNYVSWYQQLPGTAPKLLIYDNNKRPSGIPDRFSGSKSGTSTTLGITGLQTGDEADYYCGTWDSRLSAVVFGGGTKLTVL
For B1, the “decline in monthly migraine days (MMDs)” value [3] was 46% and the “monthly migraine days of any pain intensity after starting erenumab” value [3] was 7 MMDs.
